The compounds below were run against Terminally biotinylated beta-amyloid (Aβ42) (Homo sapiens, UniProt P05067) (assay: Aβ42 biotinylated (biotin-AB) oligomerization assay, NeutrAvidin capture ELISA). Conditions: approximate value; 1 hr oligomerization at room temperature; read-out: IC50 Aβ 42-bio.
Type: biochemical
Method: Aβ42 Biotinylated Assay Terminally biotinylated beta-amyloid (biotin-AB) was dissolved in HFIP at the concentration of 1 mg/ml and aliquoted to 50 μl/tube in 0.65 ml colored microfuge tubes (Fisher 02-681-248). The aliquots were diluted immediately by adding 450 μl of HFIP to 0.1 mg/ml. Approximately 46 ul (containing approximately 4.6 ug of biotin-AB) were taken from a tube, 100 ul of HFIP added, vortexed, and dried to a thin film under an N2 stream. 100 μl of trifluoroacetic acid (TFA) was added and vortexed. After 10 minute incubation at room temperature in a hood, resulting in disaggregation of seeds, the sample was vortexed again and dried again to a thin film under an N2 stream. 100 μl of HFIP was added, mixed, and the biotin-AB sample was dried for a third time under an N2 stream to remove residual TFA. The treated biotin-AB was dissolved in DMSO to a final peptide concentration of […] (SOX). An ELISA “capture” plate (Costar 9018) was coated with 50 μl of 1 μg/ml NeutrAvidin™ (NA) in 10 mM sodium phosphate buffer, pH 7.5. (NeutrAvidin can be prepared as 1 mg/ml (1000×) in milliQ water/10% glycerol and stored at −80° C. before use.) The plate was sealed plate with adhesive film and stored at 4° C. overnight, then blocked for 2 hours (unsealed) at room temperature with 200 μl/well OFB+0.1% v/v Tween 20. The “capture” plate was allowed to come to room temperature. Several dilutions of test compound were prepared with 100% DMSO, according to the desired concentration to be tested. 2.5 μl of diluted test compound was pipetted into the bottom of each well of a 96-well “dilution” polypropylene plate (Costar 3365), to which was added 250 ul of Oligomer Formation Buffer (OFB: 20 mM sodium phosphate, pH 7.5-150 mM NaCl). To begin oligomerization, 2 μl/well of the biotin-AB was added to the bottom of each well of a 96-well “reaction” polypropylene plate (Costar 3365) and 100 ul of each well of the “dilution” plate was transferred to the “reaction” plate (final concentration of DMSO being up to 1%). The reaction plate was sealed and incubated for 1 hr at room temperature without shaking. The reaction was then stopped by the addition of 50 ul of 0.3% Tween 20 in water. The “capture” plate blocking solution was removed, and 50 ul of each well of the “reaction” plate was transferred to each well of the “capture” plate. The “capture” plate was sealed and incubated for 2 hours at room temperature with shaking at 150 rpm. The “capture” plate was then washed on a plate washer (3×) with 200 ul/well TBST (20 mM Tris-HCL, pH 7.5/150 mM NaCl/0.1% Tween 20). 50 ul of Streptavidin-horseradish […] (1:20,000 dilution) in OFB+0.1% Tween 20 was added to each well, the “capture” plate was sealed and incubated for 1 hr with shaking at 150 rpm. As before, the plate was washed, then 100 ul of TMB/H2O2 substrate solution was added to each well. After 5-10 minutes, 100 ul of 1% v/v sulfuric acid was added and the absorbance of each well was read at 450 nm using a standard plate reader. Data is summarized in the table below; numbers given in parenthesis for the Aβ 40 Thioflavin T assays are the values in that particular experiment for compound ID 1027, given as the first entry in this table for structural comparison. “IC50 Aβ42-bio” column refers to the approximate value of the Aβ42 biotinylated assay IC50 in micromoles/L.

Terminally biotinylated beta-amyloid (Aβ42), sequence (P05067 672-713, species assumed): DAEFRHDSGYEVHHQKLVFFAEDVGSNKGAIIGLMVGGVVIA

Compound	IC50
OC(c1ncc(-c2cc(N3CC(CN4CCOCC4)C3)c3nonc3c2)o1)C(F)(F)F (centres unmarked) [compound 1677]	26.1 µM
CC(=O)N1CCCCC1c1cc(N2CC(CN3CCCC3)C2)c2nonc2c1 (centres unmarked) [compound 1555]	5 µM
OCc1cnc(-c2cc(N3CC(CN4CCOCC4)C3)c3nonc3c2)o1 [compound 1607, (2-(7-(3-(morpholinomethyl)azetidin-1-yl)benzo[c][1,2,5]oxadiazol-5-yl)oxazol-5-yl)methanol]	> 20 µM
OC(c1ccnc(-c2cc(N3CC(CN4CCOCC4)C3)c3nonc3c2)c1)C(F)(F)F (centres unmarked) [compound 1620, 2,2,2-trifluoro-1-(2-(7-(3-(morpholinomethyl)azetidin-1-yl)benzo[c][1,2,5]oxadiazol-5-yl)pyridin-4-yl)ethan-1-ol]	11.1 µM
COc1cc(-c2cc(N3CC(CN4CCOCC4)C3)c3nonc3c2)ccn1 [compound 1659, 6-(2-methoxypyridin-4-yl)-4-(3-(morpholinomethyl)azetidin-1-yl) benzo[c][1,2,5]oxadiazole]	12.4 µM
CC(C)(O)c1nc(-c2cc(N3CC(CN4CCOCC4)C3)c3nonc3c2)no1 [compound 1628]	33.1 µM
OC(c1ncccc1-c1cc(N2CC(CN3CCOCC3)C2)c2nonc2c1)C(F)(F)F (centres unmarked) [compound 1569, 2,2,2-trifluoro-1-(3-(7-(3-(morpholinomethyl)azetidin-1-yl)benzo[c][1,2,5]oxadiazol-5-yl)pyridin-2-yl) ethan-1-ol]	11.5 µM
COc1cc(-c2cc(N3CC(CN4CCOCC4)C3)c3nonc3c2)ccc1F [compound 1584, 6-(4-fluoro-3-methoxyphenyl)-4-(3-(morpholinomethyl)azetidin-1-yl) benzo[c][1,2,5]oxadiazole]	7 µM
COc1cc(N2CC(CN3CCOCC3)C2)c2nonc2c1C [compound 1613, 5-methoxy-4-methyl-7-(3-(morpholinomethyl)azetidin-1-yl)benzo[c][1,2,5]oxadiazole]	> 20 µM
OC1(c2ccc(-c3cc(N4CCC(N5CCOCC5)C4)c4nonc4c3)cc2)COC1 (centres unmarked) [compound 1719]	13 µM
CN(C)C(=O)c1ccccc1-c1cc(N2CC(CN3CCOCC3)C2)c2nonc2c1 [compound 1615]	> 20 µM
COc1cc(N2CC(CN3CCOCC3)C2)c2nonc2c1 [compound 1611, 6-methoxy-4-(3-(morpholinomethyl)azetidin-1-yl)benzo[c][1,2,5]oxadiazole]	> 20 µM
OC(c1cc(-c2cc(N3CC(CN4CCOCC4)C3)c3nonc3c2)cs1)C(F)(F)F (centres unmarked) [compound 1568, 2,2,2-trifluoro-1-(4-(7-(3-(morpholinomethyl)azetidin-1-yl)benzo[c][1,2,5]oxadiazol-5-yl)thiophen-2-yl) ethan-1-ol]	5.5 µM
OC1(c2cccc(-c3cc(N4CC(CN5CCOCC5)C4)c4nonc4c3)c2)COC1 [compound 1638]	3 µM
CC(C)(O)C1CC1c1cc(N2CC(CN3CCOCC3)C2)c2nonc2c1 (centres unmarked) [compound 1666, 2-(2-(7-(3-(morpholinomethyl)azetidin-1-yl)benzo[c][1,2,5]oxadiazol-5-yl)cyclopropyl)propan-2-ol]	> 20 µM
COc1cc(-c2cc(N3CC(CN4CCOCC4)C3)c3nonc3c2)ccc1C1CC1 [compound 1660, 6-(4-cyclopropyl-3-methoxyphenyl)-4-(3-(morpholinomethyl)azetidin-1-yl) benzo[c][1,2,5]oxadiazole]	3.9 µM
CN1CCCCC1c1cc(N2CC(CN3CCCC3)C2)c2nonc2c1 (centres unmarked) [compound 1557]	18.7 µM
COc1ccc(-c2cc(N3CC(CN4CCOCC4)C3)c3nonc3c2)cc1OC [compound 1573, 6-(3,4-dimethoxyphenyl)-4-(3-(morpholinomethyl)azetidin-1-yl) benzo[c][1,2,5]oxadiazole]	12.9 µM
OC(c1cccc(-c2cc(N3CC(CN4CCOCC4)C3)c3nonc3c2)n1)C(F)(F)F (centres unmarked) [compound 1619, 2,2,2-trifluoro-1-(6-(7-(3-(morpholinomethyl)azetidin-1-yl)benzo[c][1,2,5]oxadiazol-5-yl)pyridin-2-yl)ethan-1-ol]	11.3 µM

Compound	IC50
CC(C)(O)c1ccc(-c2cc(N3CC(CN4CCOCC4)C3)c3nonc3c2)cc1 [compound 1616]	16.2 µM
NC(=O)c1ccc(-c2cc(N3CC(CN4CCCC4)C3)c3nonc3c2)cc1 [compound 1579, 4-(7-(3-(pyrrolidin-1-ylmethyl)azetidin-1-yl)benzo[c][1,2,5]oxadiazol-5-yl)benzamide]	96 µM
NC(=O)c1cccc(-c2cc(N3CC(CN4CCCC4)C3)c3nonc3c2)c1 [compound 1609, 3-(7-(3-(pyrrolidin-1-ylmethyl)azetidin-1-yl)benzo[c][1,2,5]oxadiazol-5-yl)benzamide]	2.4 µM
OC(c1ccc(-c2cc(N3CC(CN4CCOCC4)C3)c3nonc3c2)nc1)C(F)(F)F (centres unmarked) [compound 1622, 2,2,2-trifluoro-1-(6-(7-(3-(morpholinomethyl)azetidin-1-yl)benzo[c][1,2,5]oxadiazol-5-yl)pyridin-3-yl)ethan-1-ol]	5.8 µM
OC(c1nc(-c2cc(N3CC(CN4CCOCC4)C3)c3nonc3c2)cs1)C(F)(F)F (centres unmarked) [compound 1627]	10.4 µM
NC(=O)c1cc(N2CC(CN3CCCC3)C2)c2nonc2c1 [compound 1548]	25.3 µM
OC1(c2ccc(-c3cc(N4CCC(CN5CCOCC5)CC4)c4nonc4c3)cc2)COC1 [compound 1736]	9.7 µM
OC(c1ccc(-c2cc(N3CC(CN4CCOCC4)C3)c3nonc3c2)s1)C(F)(F)F (centres unmarked) [compound 1562, 2,2,2-trifluoro-1-(5-(7-(3-(morpholinomethyl)azetidin-1-yl)benzo[c][1,2,5]oxadiazol-5-yl)thiophen-2-yl)ethan-1-ol]	2.7 µM
OC(c1ccnc(-c2cc(N3CC(CN4CCCC4)C3)c3nonc3c2)c1)C(F)(F)F (centres unmarked) [compound 1587, 2,2,2-trifluoro-1-(2-(7-(3-(pyrrolidin-1-ylmethyl)azetidin-1-yl)benzo[c][1,2,5]oxadiazol-5-yl)pyridin-4-yl)ethan-1-ol]	12.3 µM
OCc1ccccc1-c1cc(N2CC(CN3CCOCC3)C2)c2nonc2c1 [compound 1572]	> 20 µM
COc1ncccc1-c1cc(N2CC(CN3CCOCC3)C2)c2nonc2c1 [compound 1658, 6-(2-methoxypyridin-3-yl)-4-(3-(morpholinomethyl)azetidin-1-yl) benzo[c][1,2,5]oxadiazole]	> 20 µM
CC(=O)N(C1CC1)C(C)c1cc(N2CC(CN3CCCC3)C2)c2nonc2c1 (centres unmarked) [compound 1550]	5.3 µM
OC1(c2ccccc2-c2cc(N3CC(CN4CCOCC4)C3)c3nonc3c2)COC1 [compound 1663]	> 20 µM
OC(c1cnc(-c2cc(N3CC(CN4CCOCC4)C3)c3nonc3c2)s1)C(F)(F)F (centres unmarked) [compound 1625]	4.2 µM
OCc1nc(-c2cc(N3CC(CN4CCOCC4)C3)c3nonc3c2)no1 [compound 1629]	15.7 µM
OC1(c2cc(N3CC(CN4CCOCC4)C3)c3nonc3c2)CC(OCc2ccccc2)C1 (centres unmarked) [compound 1692, 3-(benzyloxy)-1-(7-(3-(morpholinomethyl)azetidin-1-yl)benzo[c][1,2,5]oxadiazol-5-yl) cyclobutan-1-ol]	5.6 µM
FC(F)(F)c1nc(-c2cc(N3CC(CN4CCOCC4)C3)c3nonc3c2)no1 [compound 1643, 4-(3-(morpholinomethyl)azetidin-1-yl)-6-(5-(trifluoromethyl)-1,2,4-oxadiazol-3-yl)benzo[c][1,2,5]oxadiazole]	14.2 µM
c1nc(-c2cc(N3CC(CN4CCCC4)C3)c3nonc3c2)cs1 [compound 1561]	6.9 µM
CC(C)(O)c1cccc(-c2cc(N3CC(CN4CCOCC4)C3)c3nonc3c2)c1 [compound 1617]	14.6 µM
